According to ChEMBL document CHEMBL1121908, “Membrane effects of antiinflammatory agents. 1. Interaction of sulindac and its metabolites with phospholipid membrane, a magnetic resonance study” (J Med Chem, 1981):

Experiments:
Format in all cases: subcellular
[1] = tested on: Liposome; assay: The compound was evaluated for percent incorporation in DOPC vesicles, when compound to lipid mol ratio is 0.1
[2] = tested on: Liposome; assay: The compound was evaluated for percent incorporation in DOPC vesicles, when compound to lipid mol ratio is 2
[3] = tested on: Liposome; assay: The compound was evaluated for percent incorporation in DOPC vesicles, when compound to lipid mol ratio is 3.5

Incorporation [1] [%] | Incorporation [2] [%] | Incorporation [3] [%] | Compound
7 | 5 | – | CC1=C(CC(=O)O)c2cc(F)ccc2/C1=C\c1ccc([S+](C)[O-])cc1 (stereo not given)
74 | 41 | 25 | CSc1ccc(/C=C2/C(C)=C(CC(=O)O)c3cc(F)ccc32)cc1
